Values of other authors, collected in patent US20160022811A1 (Teva Pharmaceutical Industries Ltd., priority 2013, published 2016).

Test system: relapsing-remitting MS (RRMS)
Details: registration trials, comparison with placebo

L-glutamic acid polymer with L-alanine, L-lysine, L-tyrosine, acetate (salt) [glatiramer acetate]
reduction of relapse rate: about one third
